Source: patent US12544419B2, “Targeted amatoxin conjugate for the treatment of solid tumors” (Heidelberg Pharma Research GmbH, priority 2018, dated 2026)

Columns and labels:
[1] = tested on: Raji Burkitt's lymphoma cells (s.c. xenograft); test: Raji s.c. xenograft model (solid tumor), tumor volume; type: in vivo, CB17 SCID mice; details: for Efficacy Raji sc: anti-CD19 conjugate, grade, key not given; for tumor shrinking activity (FIG. 7): conjugated to chiBCE19 D265C, Raji cells injected s.c., single intravenous dose
Protocol: (§1) Raji xenograft model: Female CB17 SCID mice were inoculated with 2.5×10^6 Raji Burkitt's lymphoma cells per mouse subcutaneously in the right flank. At a mean tumor vol. of ˜80 mm^3, animals were allocated to groups on day 0. On the same day the animals received a single intravenous dose of amanitin based anti-CD19 antibody drug conjugates (ADCs) Tumor volume and body weight were determined twice per week.
(§2) Tumor growth was monitored by caliper measurement. Tumor size was calculated according to the equation: volume=W^2×L×0.5 (L=length and W=perpendicular width of the tumor, L>W).
Growth inhibition experiments were then carried out with tumor xenografts of Raji cells injected into mice s.c. This approach leads to tumors that mimic the phenotype of a solid tumor.

LNCaP cells = test: Cell viability assay (BrdU incorporation), LNCaP; type: cell-based; details: conjugated to anti-PSMA antibody h3/F11 D265C
Protocol: (§3) Cytotoxic activity of anti PSMA and anti-Her2 amatoxin conjugates was evaluated in vitro with target-positive tumor cell lines and the chemiluminescent BrdU incorporation assay (Roche Diagnostics). Cell viability was determined after 96 h incubation with different concentrations of conjugates at 37° C. and 5% CO2 by measurement of fixed and permeabilized cells with an anti-BrdU-HRP antibody in a BMG Labtech Optima microplate reader. EC50 value of dose-response curve was calculated by Graphpad Prism 4.0 software.
LNCaP is a solid prostate adenocarcinoma cell line derived from a left supraclavicular lymph node metastasis.

Raji cells = test: CellTiter-Glo 2.0 cell viability assay, Raji; type: cell-based, human; details: conjugated to antiCD19 antibody chiBCE19 D265C
Protocol: Cytotoxic activity of anti CD19 amatoxin conjugates on target positive cells was assessed by CellTiter-Glo 2.0 Luminescent Cell Viability Assay (Promega, Madison, WI) in 96-well tissue culture plates. Cell viability was determined after 96 h incubation with different concentrations of conjugates at 37° C. and 5% CO2. Data analysis was performed with GraphPad Prism 7 (GraphPad Software, Inc, La Jolla, CA) software to plot curve fits and perform statistical analyses. Nonlinear variable slope curve-fits were plotted as log[ADC] vs. Response and EC50 values were generated.
Raji is a cell line derived from Burkitt's lymphoma.

[2] = tested on: LNCap prostate carcinoma cells (s.c. xenograft); test: LnCap xenograft model, tumor volume; type: in vivo, CB17 SCID mice; details: conjugated to anti-PSMA antibody h3/F11 D265C; LnCap xenografts; single intravenous dose
Protocol: as §1, with “LnCap” for “Raji”, “Male” for “Female”, “LNCap prostate carcinoma” for “Raji Burkitt's lymphoma”, “˜150” for “˜80”, “anti-PSMA” for “anti-CD19”
as §2

[3] = tested on: Nalm-6 cells (i.v. xenograft); test: Intravenous Nalm-6 xenograft model (liquid tumor), survival; type: in vivo, CB17 SCID mice; details: conjugated to chiBCE19 D265C; i.v. injected NALM6 cells; single i.v. dose
Protocol: (§4) Intravenous Nalm-6 xenograft model: Female CB17 SCID mice were inoculated with 2.5×10^6 Raji Burkitt's lymphoma cells per mouse into the tail vein. Animals were allocated to groups on day 0. On day 3 after tumor cell injection, the animals received a single intravenous dose of amanitin based anti-CD19 antibody drug conjugates (ADCs). Body weight was determined twice per week. Survival was monitored daily.
as §4, with “[…]” for “Nalm-6”, “5×10^6 Nalm-6 B Cell precursor leukemia” for “2.5×10^6 Raji Burkitt's lymphoma”
(§5) Survival rates were then investigated with tumor xenografts of Raji cells (with or without transfected luciferase) or Nalm-6 cells obtained by i.v. administration of the respective cells.
(§6) Raji is a cell line derived from Burkitt's lymphoma, Nalm-6 is a cell line derived from acute lymphoblastic leukemia (ALL). Results are shown in the Kaplan Meier curves of FIG. 6.
(§7) Survival experiments were carried out with i.v. injected Raji Luc (FIG. 6A) or NALM6 (FIG. 6B) cells.

[4] = Highest non-severely toxic dose, DIG (Digoxigenin antibody) conjugates, Cyno; details: Digoxigenin antibody conjugate (no cross reaction with host targets); Cynomolgus monkey
JIMT-1 cells = test: Cell viability assay (BrdU incorporation), JIMT-1; type: cell-based; details: conjugated to Trastuzumab D265C
Protocol: as §3
JIMT-1 is a solid cancer cell line derived from a breast ductal adenocarcinoma.

[5] = tested on: Raji Luc cells (i.v. xenograft); test: Intravenous Raji-Luc xenograft (liquid tumor), survival; type: in vivo, CB17 SCID mice; details: conjugated to chiBCE19 D265C; i.v. injected Raji Luc cells; single i.v. dose
Protocol: as §4
as §4, with “[…]” for “Nalm-6”, “5×10^6 Nalm-6 B Cell precursor leukemia” for “2.5×10^6 Raji Burkitt's lymphoma”
as §5, §6, §7

[6] = tested on: Jimt-1 breast cancer cells (s.c. xenograft); test: Jimt-1 xenograft model, tumor volume; type: in vivo, NMRI nude mice; details: conjugated to Trastuzumab D265C; JIMT xenografts; single intravenous dose
Protocol: as §1, with “Jimt-1” for “Raji”, “NMRI nude” for “CB17 SCID”, “5×10^6 Jimt-1 breast cancer” for “2.5×10^6 Raji Burkitt's lymphoma”, “˜120” for “˜80”, “anti-Her2” for “anti-CD19”
as §2

RNA polymerase I = RNA polymerase I (Homo sapiens, UniProt O95602+Q9H9Y6); details: cited from earlier work
RNA polymerase III = RNA polymerase III (Homo sapiens, UniProt O14802+Q9NW08); details: cited from earlier work

Row | Molecule | Efficacy Raji sc [1] | tumor shrinking activity (FIG. 7) [1] | potency in cell viability assay (FIG. 3) (LNCaP cells) | potency in cell viability assay (FIG. 5) (Raji cells) | tumor shrinking activity (FIG. 4) [2] | potency in survival experiment (FIG. 6B) [3] | HNSTD DIG Cyno [4] | potency in cell viability assay (FIG. 1) (JIMT-1 cells) | potency in survival experiment (FIG. 6A) [5] | tumor shrinking activity (FIG. 2) [6] | binding to RNA polymerase I (RNA polymerase I) | binding to RNA polymerase III (RNA polymerase III)
1 | CC[C@H](C)[C@@H]1NC(=O)CNC(=O)[C@@H]2Cc3c([nH]c4cc(OCc5ccc(NC(=O)[C@H](C)NC(=O)[C@@H](NC(=O)CCN6C(=O)C=CC6=O)C(C)C)cc5)ccc34)[S@+]([O-])CC(NC(=O)CNC1=O)C(=O)N[C@@H](CC(N)=O)C(=O)CN1CC(O)C[C@H]1C(=O)N[C@@H]([C@@H](C)[C@@H](O)CO)C(=O)N2 (stereo partly shown) [30.1699] | ∘ | strong tumor shrinking activity | comparable potency | comparable potency | strong tumor shrinking activity | lower potency than the Trp variant 30.2115 | >3 mg/kg | comparable potency | lower potency than the Trp variant 30.2115 | strong tumor shrinking activity |  | 
2 | CC[C@H](C)[C@@H]1NC(=O)CNC(=O)[C@@H]2Cc3c([nH]c4cc(O)ccc34)[S@+]([O-])CC(NC(=O)CNC1=O)C(=O)N[C@@H](CC(=O)NCc1ccc(NC(=O)[C@H](C)NC(=O)C(NC(=O)CCN3C(=O)C=CC3=O)C(C)C)cc1)C(=O)CN1CC(O)C[C@H]1C(=O)N[C@@H]([C@@H](C)[C@@H](O)CO)C(=O)N2 (stereo partly shown) [30.2060] | ∘ | strong tumor shrinking activity | comparable potency | comparable potency | strong tumor shrinking activity |  | <7.5 mg/kg | comparable potency |  | strong tumor shrinking activity |  | 
3 | CC[C@H](C)[C@@H]1NC(=O)CNC(=O)[C@@H]2Cc3c([nH]c4ccccc34)SCC(NC(=O)CNC1=O)C(=O)N[C@@H](CC(=O)NCc1ccc(NC(=O)[C@H](C)NC(=O)C(NC(=O)CCN3C(=O)C=CC3=O)C(C)C)cc1)C(=O)CN1CC(O)C[C@H]1C(=O)N[C@@H]([C@@H](C)[C@@H](O)CO)C(=O)N2 (stereo partly shown) [30.2115, reference compound] |  | significantly decreased tumor shrinking activity | strongly decreased potency | comparable potency | significantly decreased tumor shrinking activity |  | <7.5 mg/kg | slightly decreased potency |  | significantly decreased tumor shrinking activity |  | 
4 | CC[C@H](C)[C@@H]1NC(=O)CNC(=O)[C@@H]2Cc3c([nH]c4ccccc34)[S+]([O-])CC(NC(=O)CNC1=O)C(=O)N[C@@H](CC(=O)NCc1ccc(NC(=O)[C@H](C)NC(=O)[C@@H](NC(=O)CCN3C(=O)C=CC3=O)C(C)C)cc1)C(=O)CN1CC(O)C[C@H]1C(=O)N[C@@H]([C@@H](C)[C@@H](O)CO)C(=O)N2 (stereo partly shown) [30.2183, reference compound] |  | significantly decreased tumor shrinking activity | strongly decreased potency | comparable potency | significantly decreased tumor shrinking activity |  |  | strongly decreased potency |  | significantly decreased tumor shrinking activity |  | 
5 | CC[C@H](C)[C@@H]1NC(=O)CNC(=O)[C@@H]2Cc3c([nH]c4cc(O)ccc34)SCC(NC(=O)CNC1=O)C(=O)N[C@@H](CC(=O)NCc1ccc(NC(=O)[C@H](C)NC(=O)C(NC(=O)CCN3C(=O)C=CC3=O)C(C)C)cc1)C(=O)CN1CC(O)C[C@H]1C(=O)N[C@@H]([C@@H](C)[C@@H](O)CO)C(=O)N2 (stereo partly shown) [30.2347] | ∘ | strong tumor shrinking activity | comparable potency | comparable potency | strong tumor shrinking activity |  | <5 mg/kg | comparable potency |  | strong tumor shrinking activity |  | 
6 | CC[C@H](C)[C@@H]1NC(=O)CNC(=O)[C@@H]2Cc3c([nH]c4cc(OCc5ccc(NC(=O)[C@H](C)NC(=O)[C@@H](NC(=O)CCN6C(=O)C=CC6=O)C(C)C)cc5)ccc34)SCC(NC(=O)CNC1=O)C(=O)N[C@@H](CC(N)=O)C(=O)CN1CC(O)C[C@H]1C(=O)N[C@@H]([C@@H](C)[C@@H](O)CO)C(=O)N2 (stereo partly shown) [30.2371] | ∘ | strong tumor shrinking activity | comparable potency | comparable potency | strong tumor shrinking activity |  | >2 mg/kg | comparable potency |  | strong tumor shrinking activity |  | 
7 | α-amanitin [Alpha-amanitin] |  |  |  |  |  |  |  |  |  |  | no binding | only slightly binds
